From patent publication US12685733B2, “Indole molecules and use thereof in the inhibition of DNA polymerases” (BioVentures, LLC, priority 2019, dated 2026)

What was measured:
T98G cells = assay: Clonogenic survival assay; type: cell-based, human
[1] = system: hpol κ-proficient HAP-1 cells; assay: Clonogenic survival assay; type: cell-based, human
Protocol: (§1) HAP-1 and hpol κ^KO cells were purchased from Horizons Discovery Group LLC (Cambridge, UK). The company generated the Hap1 cells using CRISPR-Cas9 technology and the elimination of kappa expression was confirmed by Sanger sequence genome editing. We further confirmed the elimination of hpol κ protein expression by Western blotting (data not shown). Hap1 cells were cultured in Iscove's modified Dulbecco's medium (IMDM; Invitrogen, CA, USA) supplemented with 10% (v/v) fetal bovine serum (FBS; Atlas Biologicals, CO, USA) and 1% (v/v) antibiotic/antimycotic solution (Sigma-Aldrich, MO, USA).T98G cells were purchased from ATCC (American Type Culture Collection, VA, USA). T98G cells were cultured in MEM (Minimum Essential Medium) (Invitrogen, CA, USA) supplemented with 10% (v/v) FBS (Fetal Bovine Serum, Atlas Biologicals, CO, USA) and antibiotic/antimycotic solution (1%, v/v) (Sigma-Aldrich, MO, USA). NT2 cells were kindly provided by Dr. Michael Borrelli (University of Arkansas for Medical Sciences, AR, USA). NT2 cells were cultured in DMEM/F12 (Dulbecco's Modified Eagle Medium) supplemented with 10% (v/v) FCS (Fetal Calf Serum) and antibiotic/antimycotic solution (1%) (Sigma-Aldrich, MO, USA).
(§2) To measure the clonogenic ability, cells were plated (500 cells per well) in 6-well dishes. In the case of HAP-1 cells, cells were treated the following day after plating, with temozolomide (TMZ) (0, 1, 5, 50, 125 and 250 μM) alone or in combination with UAMS-48 (0.1 and 0.5 μM) for 1 hour. In the case of T98G and NT2 cells, treatment was done on the following day of plating, with increasing concentrations of TMZ alone or in combination with UAMS-48 (50 nM) for 3 hrs. T98G and NT2 cells were treated with increasing concentrations of UAMS-48 for 3 hrs. After treatment, cells were cultured in fresh IMDM supplemented with 10% FBS for 10 days. The colonies were gently washed with 1×PBS, fixed with 3.7% (v/v) formaldehyde for 20 mins at RT and stained with crystal violet solution (Sigma-Aldrich, MO, USA) for 30 mins at RT.
(§3) The fixed crystal-violet stained colonies in each 6-well plate were examined under an EVOS XL Core imaging system (Thermo Fisher Scientific) under bright-field, and the colonies were inspected manually. […] Color images of each 6-well plate were captured and opened for processing using the Fiji version of the freely available software ImageJ. Setting the appropriate threshold for counting colonies for each cell type, corresponding to the respective radii calculated previously, the colonies were counted using the Colony Area plugin of ImageJ. Manual counting was performed on a few wells picked randomly, and the colony count so obtained was tallied with the number obtained using ImageJ, to ensure they matched reasonably. All experiments were performed in triplicate, and the colony number for each well was expressed as the mean (±standard deviation). The results were plotted to generate a dose response curve for TMZ treatment using the software Graphpad Prism, where the mean number of colonies was plotted along the Y-axis, and the TMZ concentration along the X-axis. Bar charts comparing the mean number of colonies as a function of the various conditions were also plotted for both cell types. Combination index values were calculated using the Chou-Talalay method (Chou 2010).

[2] = system: hpol κ-deficient HAP-1 cells; assay: Clonogenic survival assay; type: cell-based, human
Protocol: as §1, §2, §3

[3] = system: hpol κ-proficient HAP-1 cells; assay: supF mutagenesis assay; conditions: 1 μM IAG-10, 24 h
Protocol: HAP-1 hpol κ-proficient and hpol κ-deficient cells were cultured in 10 cm dishes to ~80% confluency in Iscove's modified Dulbecco's medium (Invitrogen) containing 10% (v/v) FBS supplemented with Ix antibiotic antimycotic solution (Sigma). They were transfected with unmodified (control) and methylmethanesulfonate (MMS)-modified pSP189 plasmid harboring the supF gene either in the absence or presence of 1 μM IAG-10. For plasmid modification with MMS, the pSP189 plasmid was first incubated with 100 mM MMS in 10 mM HEPES buffer (pH 7.5) containing 50 mM KCl, 5 mM MgCl2, and 1 mM dithiothreitol at RT for 1 h. The MMS-modified plasmid was then purified by ethanol precipitation and used in subsequent transfections, similar to the unmodified plasmid. […] The recovered plasmids (75-100 ng) were then transformed into E. coli MBM7070 strain by electroporation, and the transformed bacterial cells were plated on LB-agar plates containing 100 μg/mL ampicillin, 1 mM isopropyl-I-thio-fi-Dgalactopyranoside (IPTG) and 100 μg/mL X-gaL The resulting blue (nonmutated) and white (mutated) colonies were counted. The mutation frequency was calculated as the ratio of mutant (white) colonies to total (blue+white) colonies. At least 10 000 colonies were counted for each condition, and the results reported represent the mean (±SD) of experiments performed in biological triplicate.

hpol ι = target: T1, hpol ι (Homo sapiens, UniProt Q9UNA4); assay: Gel-based primer extension assay; type: biochemical; conditions: 10 μM; 10 nM hpol ι
T1 construct: hpol ι (residues 1-446); made in house
T1 sequence (Q9UNA4 1-446): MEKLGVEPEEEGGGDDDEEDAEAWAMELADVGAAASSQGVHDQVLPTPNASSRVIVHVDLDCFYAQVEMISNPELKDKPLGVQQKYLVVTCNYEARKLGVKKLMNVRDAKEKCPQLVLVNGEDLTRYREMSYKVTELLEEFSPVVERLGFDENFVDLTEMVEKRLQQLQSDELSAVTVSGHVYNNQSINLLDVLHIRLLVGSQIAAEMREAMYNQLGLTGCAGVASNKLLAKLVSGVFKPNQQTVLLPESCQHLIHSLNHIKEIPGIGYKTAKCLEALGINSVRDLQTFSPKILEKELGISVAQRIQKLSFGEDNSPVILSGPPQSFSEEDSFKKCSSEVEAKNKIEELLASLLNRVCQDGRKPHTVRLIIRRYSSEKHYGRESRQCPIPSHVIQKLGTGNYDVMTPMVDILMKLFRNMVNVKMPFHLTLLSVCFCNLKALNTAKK

hpol κ = target: T2, hpol κ (Homo sapiens, UniProt Q9UBT6); assay: Gel-based primer extension assay; type: biochemical; design: hpol κ (residues 19-526); made in house; conditions: 10 μM; 1 nM hpol κ
T2 sequence (Q9UBT6 19-526): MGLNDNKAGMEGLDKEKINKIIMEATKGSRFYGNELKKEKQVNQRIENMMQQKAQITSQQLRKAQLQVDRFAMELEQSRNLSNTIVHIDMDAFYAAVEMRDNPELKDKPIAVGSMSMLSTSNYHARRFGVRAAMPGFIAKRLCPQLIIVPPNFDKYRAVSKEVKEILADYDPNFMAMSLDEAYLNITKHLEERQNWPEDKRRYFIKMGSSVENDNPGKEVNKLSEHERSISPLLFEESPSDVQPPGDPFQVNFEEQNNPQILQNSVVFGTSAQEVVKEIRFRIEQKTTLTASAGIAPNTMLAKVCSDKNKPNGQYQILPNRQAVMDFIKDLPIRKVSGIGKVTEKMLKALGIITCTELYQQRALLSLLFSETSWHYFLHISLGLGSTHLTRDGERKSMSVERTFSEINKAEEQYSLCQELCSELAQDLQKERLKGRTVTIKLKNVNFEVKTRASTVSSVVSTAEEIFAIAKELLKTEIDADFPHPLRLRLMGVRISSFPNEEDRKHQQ

hpol β = target: T3, hpol β (Homo sapiens, UniProt P06746); assay: Fluorescence-based polymerase assay, other pol families; type: biochemical; conditions: 10 μM; 1 nM hpol β (X-family)
T3 construct: gift of Dr. Samuel Wilson (NIEHS)

## Cl.[H]/N=C(\N)NN=Cc1cn(C(=O)c2cccc3ccccc23)c2ccc(Cl)cc12 [IAG-10, (E)-2-((1-(1-naphthoyl)-5-chloro-1H-indol-3-y1)methylene)hydrazine-1-carboximidamide hydrochloride]
T98G cells; IAG-10 50 nM + TMZ
  combination index (TMZ and IAG-10, Chou-Talalay): 0.09
T98G cells; IAG-10 50 nM along with TMZ, 3 hrs
  decrease of cell proliferation (clonogenic) compared to TMZ alone: ~ 10 fold
T98G cells; IAG-10 alone, concentrations above that used for combination
  decrease in GBM-derived cell proliferation compared to NT2 cells: ~ 2 fold
[1]; 0.5 μM IAG-10
  colony formation, compound alone: does not impair colony formation
[1]; 250 μM TMZ + 0.5 μM IAG-10 co-treatment, 1 hour
  colonies formed relative to untreated cells: ~ 40%
[2]; 0.5 μM IAG-10
  colony formation, compound alone: does not impair colony formation
[2]; TMZ + 0.5 μM IAG-10
  colony forming ability, co-treatment over TMZ alone: did not show any significant reduction in colony forming ability
[3]
  mutation frequency for the undamaged plasmid: did not change the mutation frequency
[3]; MMS-damaged pSP189
  mutation frequency for MMS-damaged DNA over the undamaged control plasmid: approximately twofold
Hpol ι
  polymerase activity relative to DMSO control: only hpol κ was inhibited
Hpol κ
  polymerase activity relative to DMSO control: only hpol κ was inhibited
Hpol β
  polymerase activity relative to DMSO control: only hpol κ activity was inhibited
